Results taken from PubChem BioAssay AID1259408 (Genetic Toxicology Data Bank (GENE-TOX), 2018).
Activity calls are given as the source filed them. How the calls were made is not given here.

Test system: GENE-TOX genotoxicity assays, various organisms and cells
Experiment: GENE-TOX mutagenicity studies
Conditions: for call: Assay Type: In vivo carcinogenicity studies
[1] = Species/Cell Type: Salmonella typhimurium (one or more of the five standard strains: TA98, TA100, TA1535, TA1537, and TA1538), Assay Type: Histidine reverse gene mutation, Ames assay, Assay Code: SAL+, Evaluation Type: Evaluation A (Pre-1980)
[2] = Species/Cell Type: Mammalian polychromatic erythrocytes, Assay Type: Micronucleus test, chromosome aberrations, Assay Code: MNT+, Evaluation Type: Evaluation B (Post-1980)
[3] = Species/Cell Type: Human lymphocytes, Assay Type: Sister-chromatid exchange (SCE) in vitro, Assay Code: SCL+, Evaluation Type: Evaluation B (Post-1980)
[4] = Species/Cell Type: Human, Assay Type: Sister-chromatid exchange (SCE) in vitro, Assay Code: SC1+, Evaluation Type: Evaluation B (Post-1980)
[5] = Species/Cell Type: Salmonella typhimurium (one or more of the five standard strains: TA98, TA100, TA1535, TA1537, and TA1538), Assay Type: Histidine reverse gene mutation, Ames assay, Assay Code: SALT, Evaluation Type: Evaluation A (Pre-1980)
[6] = Species/Cell Type: Nonhuman, Assay Type: Sister-chromatid exchange (SCE) in vitro, Assay Code: SC2+D, Dose Response: With dose response, Evaluation Type: Evaluation B (Post-1980)
[7] = Species/Cell Type: Rodents, Sex: Male, Assay Type: Dominant lethal test, Assay Code: DLT-, Evaluation Type: Evaluation A (Pre-1980)
[8] = Species/Cell Type: Mammalian polychromatic erythrocytes, Assay Type: Micronucleus test, chromosome aberrations, Assay Code: MNTT, Evaluation Type: Evaluation B (Post-1980)
[9] = Species/Cell Type: Saccharomyces cerevisiae, Assay Type: Mitotic recombination or gene conversion, Assay Code: YEC-, Evaluation Type: Evaluation A (Pre-1980)
[10] = Species/Cell Type: Bacillus subtilis (H17 vs M45), Assay Type: Rec-assay, spot test, DNA effects (bacterial DNA repair), Assay Code: REW+, Evaluation Type: Evaluation A (Pre-1980)
[11] = Species/Cell Type: Salmonella typhimurium (one or more of the five standard strains: TA98, TA100, TA1535, TA1537, and TA1538), Assay Type: Histidine reverse gene mutation, Ames assay, Assay Code: SAL+*, Activation: With metabolic activation, Evaluation Type: Evaluation A (Pre-1980)

## C[n+]1c2cc(N)ccc2cc2ccc(N)cc21 (tested in a mixture with another compound)
Species/Cell Type: Aspergillus nidulans, Assay Type: Forward gene mutation, Assay Code: ASF+, Evaluation Type: Evaluation A (Pre-1980)
  mutagenic call: active; positive
Species/Cell Type: Mammalian cell culture, nonhuman, Assay Type: Micronucleus test in vitro, chromosome aberrations, Assay Code: MN&+U, Dose Response: Unconfirmed positive response, Evaluation Type: Evaluation A (Pre-1980)
  mutagenic call: active; positive
Species/Cell Type: Mammalian oocytes or early embryo, Assay Type: Chromosome aberrations in vivo, Assay Code: CYO-, Evaluation Type: Evaluation A (Pre-1980)
  mutagenic call: inactive; negative
Species/Cell Type: Mammalian polychromatic erythrocytes, Assay Type: Micronucleus test, chromosome aberrations, Assay Code: MNT+U, Dose Response: Unconfirmed positive response, Evaluation Type: Evaluation A (Pre-1980)
  mutagenic call: active; positive
Species/Cell Type: Mouse, Sex: Male, Assay Type: Sperm morphology, Assay Code: SPI+, Evaluation Type: Evaluation A (Pre-1980)
  mutagenic call: active; positive
Species/Cell Type: Saccharomyces cerevisiae, Assay Type: Mitotic recombination or gene conversion, Assay Code: YECT, Evaluation Type: Evaluation A (Pre-1980)
  mutagenic call: no conclusion
Species/Cell Type: Saccharomyces cerevisiae, Assay Type: Mitotic recombination or gene conversion, Assay Code: YEH+, Evaluation Type: Evaluation A (Pre-1980)
  mutagenic call: active; positive
Species/Cell Type: Salmonella typhimurium, Escherichia coli, Serratia marcesens, Assay Type: Forward and reverse gene mutation, host-mediated assay, Assay Code: HMN-, Evaluation Type: Evaluation A (Pre-1980)
  mutagenic call: inactive; negative

## Oc1cc2c3ccccc3cc3ccc4cccc1c4c32
Species/Cell Type: Chinese hamster lung (V79) cells, Assay Type: Forward gene mutation at the HPRT or ouabain locus, Assay Code: V79-, Evaluation Type: Evaluation A (Pre-1980)
  mutagenic call: inactive; negative
Species/Cell Type: Nonhuman, Assay Code: CCGT, Evaluation Type: Evaluation A (Pre-1980)
  call: no conclusion
[1]
  mutagenic call: active; positive

## C1CC2OC2C2OC12 (centres undefined)
Species/Cell Type: Neurospora crassa, Assay Type: Forward gene mutation, Assay Code: NEF-, Evaluation Type: Evaluation A (Pre-1980)
  mutagenic call: inactive; negative

## CCCC(=O)Nc1ccc(OCC(O)CNC(C)C)c(C(C)=O)c1 (centres undefined)
[2]
  mutagenic call: active; positive

## CC(CN(C)C)Nc1c2ccccc2nc2cccc([N+](=O)[O-])c12 (centres undefined)
[3]
  mutagenic call: active; positive
[4]
  mutagenic call: active; positive

## CCCCNc1ccc(C(=O)OCCN(C)C)cc1
[5]
  mutagenic call: no conclusion

## O=S(O)O
Species/Cell Type: Escherichia coli WP2 UVRA, Assay Type: Tryptophan reverse gene mutation, Assay Code: WPU-*, Activation: With metabolic activation, Evaluation Type: Evaluation A (Pre-1980)
  mutagenic call: inactive; negative
Species/Cell Type: Mouse, Sex: Male, Assay Type: Heritable translocation test, chromosome aberrations, Assay Code: HTT-, Evaluation Type: Evaluation A (Pre-1980)
  mutagenic call: inactive; negative
Species/Cell Type: Mouse, Sex: Male, Assay Type: Specific locus test, gene mutation, Assay Code: SLT-, Evaluation Type: Evaluation A (Pre-1980)
  mutagenic call: inactive; negative
[6]
  mutagenic call: active; positive
[7]
  mutagenic call: inactive; negative
Species/Cell Type: Saccharomyces cerevisiae, Assay Type: Reverse gene mutation, Assay Code: YER+, Evaluation Type: Evaluation A (Pre-1980)
  mutagenic call: active; positive

## CCC=O
[3]
  mutagenic call: active; positive
[4]
  mutagenic call: active; positive

## O=C(O)C1=NN(c2ccc(S(=O)(=O)O)cc2)C(=O)C1N=Nc1ccc(S(=O)(=O)O)cc1 (centres undefined)
Species/Cell Type: Bacillus subtilis (H17 vs M45T), Assay Type: Rec-assay, spot test, DNA effects (bacterial DNA repair), Assay Code: REXT, Evaluation Type: Evaluation A (Pre-1980)
  mutagenic call: no conclusion
Species/Cell Type: Fischer rat embryo (RLV/1706) cells, Assay Type: Cell transformation, viral enhanced, Assay Code: CTR-, Evaluation Type: Evaluation A (Pre-1980)
  mutagenic call: inactive; negative
[8]
  mutagenic call: no conclusion
[9]
  mutagenic call: inactive; negative
Species/Cell Type: Salmonella typhimurium (one or more of the five standard strains: TA98, TA100, TA1535, TA1537, and TA1538), Assay Type: Histidine reverse gene mutation, Ames assay, Assay Code: SAL-, Evaluation Type: Evaluation A (Pre-1980)
  mutagenic call: inactive; negative

## COc1cc2c(c3oc(=O)c4c(c13)CCOC4=O)[C@@H]1C=CO[C@@H]1O2
[10]
  mutagenic call: active; positive
Species/Cell Type: Human diploid fibroblasts, Assay Type: Unscheduled DNA synthesis (UDS) in vitro, DNA effects, Assay Code: UDH+, Evaluation Type: Evaluation A (Pre-1980)
  mutagenic call: active; positive
Species/Cell Type: Neurospora crassa, Assay Type: Forward gene mutation, Assay Code: NEF+, Evaluation Type: Evaluation A (Pre-1980)
  mutagenic call: active; positive
Species/Cell Type: Nonhuman, Assay Code: CCG+L, Evaluation Type: Evaluation A (Pre-1980)
  call: active; positive
Species/Cell Type: Nonhuman, Assay Type: Sister-chromatid exchange (SCE) in vitro, Assay Code: SC2+D*, Activation: With metabolic activation, Dose Response: With dose response, Evaluation Type: Evaluation B (Post-1980)
  mutagenic call: active; positive
Species/Cell Type: Rat primary hepatocytes, Assay Type: Unscheduled DNA synthesis (UDS) in vitro, DNA effects, Assay Code: UDP+, Evaluation Type: Evaluation A (Pre-1980)
  mutagenic call: active; positive
[9]
  mutagenic call: inactive; negative
[11]
  mutagenic call: active; positive

## O=c1cc(CO)occ1O
[11]
  mutagenic call: active; positive

## O=C1CCc2ccc3c(ccc4ccccc43)c21
[11]
  mutagenic call: active; positive

## OCCN1CCN(CCCN2c3ccccc3Sc3ccc(C(F)(F)F)cc32)CC1
[2]
  mutagenic call: active; positive

## C=COC(N)=O
[3]
  mutagenic call: active; positive
[4]
  mutagenic call: active; positive
[6]
  mutagenic call: active; positive
Species/Cell Type: Nonhuman, Assay Type: Sister-chromatid exchange (SCE) in vivo, Assay Code: SC3+D, Dose Response: With dose response, Evaluation Type: Evaluation B (Post-1980)
  mutagenic call: active; positive

## CCCCCN(CCCC(=O)O)N=O
[5]
  mutagenic call: no conclusion

## [O]=[Cr](=[O])([OH])[O][Cr](=[O])(=[O])[OH]
[10]
  mutagenic call: active; positive
Species/Cell Type: Chinese hamster ovary (CHO) cells, Assay Type: Forward gene mutation at the HPRT locus, Assay Code: CHO+, Evaluation Type: Evaluation B (Post-1980)
  mutagenic call: active; positive
Species/Cell Type: Human lymphocytes, Assay Type: Sister-chromatid exchange (SCE) in vitro, Assay Code: SCL+D, Dose Response: With dose response, Evaluation Type: Evaluation B (Post-1980)
  mutagenic call: active; positive
Species/Cell Type: Human, Assay Type: Sister-chromatid exchange (SCE) in vitro, Assay Code: SC1+D, Dose Response: With dose response, Evaluation Type: Evaluation B (Post-1980)
  mutagenic call: active; positive
[2]
  mutagenic call: active; positive
Species/Cell Type: Nonhuman, Assay Type: Chromosome aberrations in vitro, Assay Code: CY&+, Evaluation Type: Evaluation A (Pre-1980)
  mutagenic call: active; positive
Species/Cell Type: Nonhuman, Assay Type: Sister-chromatid exchange (SCE) in vitro, Assay Code: SC2+, Evaluation Type: Evaluation B (Post-1980)
  mutagenic call: active; positive
[6]
  mutagenic call: active; positive
[1]
  mutagenic call: active; positive
Species/Cell Type: Syrian hamster embryo (SHE) cells, Assay Type: Cell transformation, clonal assay, Assay Code: CTC+, Evaluation Type: Evaluation A (Pre-1980)
  mutagenic call: active; positive

## CCCCC(CC)COC(=O)c1ccccc1C(=O)O (centres undefined)
Species/Cell Type: Chinese hamster ovary (CHO) cells, Assay Type: Forward gene mutation at the HPRT locus, Assay Code: CHOT, Evaluation Type: Evaluation B (Post-1980)
  mutagenic call: no conclusion
Species/Cell Type: Nonhuman, Assay Type: Sister-chromatid exchange (SCE) in vitro, Assay Code: SC2-, Evaluation Type: Evaluation B (Post-1980)
  mutagenic call: inactive; negative

## COc1cc(C(=O)CCN2CCCCC2)ccc1O
Species/Cell Type: Salmonella typhimurium, Assay Type: Forward and reverse gene mutation, host-mediated assay, Assay Code: HMA-, Evaluation Type: Evaluation A (Pre-1980)
  mutagenic call: inactive; negative

## O=C(O)C1CCCCN1[N+](=O)[O-] (centres undefined)
[5]
  mutagenic call: no conclusion

## OCCI
Species/Cell Type: Escherichia coli polA (W3119 vs P3478), Assay Type: Rec-assay, DNA effects (bacterial DNA repair), Assay Code: RE1+, Evaluation Type: Evaluation A (Pre-1980)
  mutagenic call: active; positive
Species/Cell Type: Mouse, Sex: Male, Assay Type: Sperm morphology, Assay Code: SPI-, Evaluation Type: Evaluation A (Pre-1980)
  mutagenic call: inactive; negative
[1]
  mutagenic call: active; positive

## O=C(O)CS
[8]
  mutagenic call: no conclusion

## Nc1ccc2ccc3cccc4ccc1c2c34
[11]
  mutagenic call: active; positive

## Cc1ccc2cccnc2c1
[11]
  mutagenic call: active; positive

## ClCc1c2ccccc2cc2c1ccc1ccccc12
[1]
  mutagenic call: active; positive

## Nc1ccc(S(=O)(=O)Nc2nccs2)cc1
Species/Cell Type: Arabidopsis species, Assay Type: Gene mutation, Assay Code: ARM-, Evaluation Type: Evaluation A (Pre-1980)
  mutagenic call: inactive; negative

## COc1ccc2c(ccc3c4c(ccc32)C(C)CC4)c1 (centres undefined)
[5]
  mutagenic call: no conclusion

## NCC(O)CCl (centres undefined)
[7]
  mutagenic call: inactive; negative
